Measured values from the NIST ThermoML archive (doi:10.1016/j.jct.2016.01.028).
± gives the expanded uncertainty stated by the source.

Conditions: 102 kPa, Liquid, Frequency=5 MHz, Single path-length method

CCCC(=O)[O-].C[NH2+]CCO [N-methyl-2-hydroxyethylammonium butanoate]
speed of sound (293.15 K): 1576.8 ± 2.6 m/s
speed of sound (298.15 K): 1562.9 ± 2.6 m/s
speed of sound (303.15 K): 1548 ± 2.6 m/s
speed of sound (308.15 K): 1529.7 ± 2.6 m/s
speed of sound (313.15 K): 1511.9 ± 2.6 m/s
speed of sound (318.15 K): 1499.4 ± 2.6 m/s
speed of sound (323.15 K): 1481.3 ± 2.6 m/s
speed of sound (328.15 K): 1467.2 ± 2.6 m/s
speed of sound (333.15 K): 1451.2 ± 2.6 m/s
speed of sound (338.15 K): 1436.7 ± 2.6 m/s
speed of sound (343.15 K): 1419.4 ± 2.6 m/s

CCCCC(=O)[O-].C[NH2+]CCO [2-hydroxy-N-methylethanaminium pentanoate]
speed of sound (293.15 K): 1537 ± 2.6 m/s
speed of sound (298.15 K): 1516.3 ± 2.6 m/s
speed of sound (303.15 K): 1503.7 ± 2.6 m/s
speed of sound (308.15 K): 1486.5 ± 2.6 m/s
speed of sound (313.15 K): 1471 ± 2.6 m/s
speed of sound (318.15 K): 1457 ± 2.6 m/s
speed of sound (323.15 K): 1440 ± 2.6 m/s
speed of sound (328.15 K): 1424.6 ± 2.6 m/s
speed of sound (333.15 K): 1412.8 ± 2.6 m/s
speed of sound (338.15 K): 1397.1 ± 2.6 m/s
speed of sound (343.15 K): 1381.9 ± 2.6 m/s
